Measurements taken from publication PMC7094550 (Experimental Parasitology, 2017).

Target: T1, Leishmania donovani HMG-CoA reductase (LdHMGR) (Leishmania donovani, UniProt A0A3S7X3U0)
T1 sequence (A0A3S7X3U0 1-434): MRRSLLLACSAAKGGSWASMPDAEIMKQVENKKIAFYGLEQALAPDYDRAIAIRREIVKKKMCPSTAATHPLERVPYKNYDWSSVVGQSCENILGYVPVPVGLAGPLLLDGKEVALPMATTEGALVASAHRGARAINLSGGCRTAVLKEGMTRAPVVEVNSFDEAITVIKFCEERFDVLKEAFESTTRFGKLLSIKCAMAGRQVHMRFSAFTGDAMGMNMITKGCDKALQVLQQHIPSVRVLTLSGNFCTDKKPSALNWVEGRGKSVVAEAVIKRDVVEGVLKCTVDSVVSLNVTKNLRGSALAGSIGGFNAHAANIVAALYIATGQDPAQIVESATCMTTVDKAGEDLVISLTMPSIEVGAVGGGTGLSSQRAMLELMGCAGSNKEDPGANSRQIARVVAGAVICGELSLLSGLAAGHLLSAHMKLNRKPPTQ
Experiment: NADPH oxidation assay at […] nm with purified recombinant enzyme
Assay type: biochemical

IC50: 300 nM
SMILES: CC(C)c1c(C(=O)Nc2ccccc2)c(-c2ccccc2)c(-c2ccc(F)cc2)n1CC[C@@H](O)C[C@@H](O)CC(=O)O [Atorvastatin]
